Measured values as given in patent US6432984B1, “Pyrazolecarboxylic acid derivatives, their preparation, pharmaceutical compositions containing them” (Sanofi-Synthelabo, priority 1999, dated 2002).

Key:
[1] = biological target: T1, CB1 receptors present in the brain (Mus musculus, UniProt P47746); assay: duration of occupation of the CB1 receptors present in the brain, in vivo after oral administration; conditions: mice, oral 10 mg/kg; for % of occupation of the receptors, 1 hour: 1 hour after administration; for % of occupation of the receptors, 24 hours: 24 hours after administration
T1 construct: from tissue; host or cells: mouse brain
Description: Moreover, the duration of occupation of the CB1 receptors present in the brain by the 3 compounds below was compared: […]

[2] = tested on: hypothermia induced with a cannabinoid receptor agonist (WIN 55212-2); assay: antagonism of the hypothermia induced with WIN 55212-2; assay type: in vivo; conditions: mice; for ED50: Mus musculus, oral, WIN 55212-2 induced hypothermia; for Duration of action, 24 h, oral dose 1 mg/kg: oral dose 1 mg/kg
Description: In this test, the activity and the duration of action of 3 compounds were compared.

[3] = biological target: T2, CB1 cannabinoid receptors (Homo sapiens, UniProt P21554); assay: in vitro affinity for CB1 cannabinoid receptors (conditions of Devane et al.)
[4] = biological target: T2, CB1 cannabinoid receptors; assay: models of adenylate-cyclase inhibition; assay type: biochemical; conditions: as described in Rinaldi-Carmona et al. 1996
Description: More particularly, the compound of the present invention, in its native form or in the form of one of its pharmaceutically acceptable salts, is a powerful and selective antagonist of the CB1 cannabinoid receptors.

T2 sequence (P21554 whole entry): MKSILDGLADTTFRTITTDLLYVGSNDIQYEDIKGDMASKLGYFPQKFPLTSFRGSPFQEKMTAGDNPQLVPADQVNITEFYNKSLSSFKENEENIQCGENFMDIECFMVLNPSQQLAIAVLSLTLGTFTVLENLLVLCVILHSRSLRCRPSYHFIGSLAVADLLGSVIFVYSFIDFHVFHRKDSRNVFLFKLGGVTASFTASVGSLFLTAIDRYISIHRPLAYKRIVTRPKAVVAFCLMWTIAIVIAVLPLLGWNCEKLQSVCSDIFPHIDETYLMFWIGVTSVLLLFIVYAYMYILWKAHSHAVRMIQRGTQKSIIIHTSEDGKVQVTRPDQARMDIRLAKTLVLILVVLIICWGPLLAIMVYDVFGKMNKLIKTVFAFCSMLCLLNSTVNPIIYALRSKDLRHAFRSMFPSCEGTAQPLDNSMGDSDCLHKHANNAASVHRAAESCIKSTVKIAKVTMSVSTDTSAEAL
T1 sequence (P47746 whole entry): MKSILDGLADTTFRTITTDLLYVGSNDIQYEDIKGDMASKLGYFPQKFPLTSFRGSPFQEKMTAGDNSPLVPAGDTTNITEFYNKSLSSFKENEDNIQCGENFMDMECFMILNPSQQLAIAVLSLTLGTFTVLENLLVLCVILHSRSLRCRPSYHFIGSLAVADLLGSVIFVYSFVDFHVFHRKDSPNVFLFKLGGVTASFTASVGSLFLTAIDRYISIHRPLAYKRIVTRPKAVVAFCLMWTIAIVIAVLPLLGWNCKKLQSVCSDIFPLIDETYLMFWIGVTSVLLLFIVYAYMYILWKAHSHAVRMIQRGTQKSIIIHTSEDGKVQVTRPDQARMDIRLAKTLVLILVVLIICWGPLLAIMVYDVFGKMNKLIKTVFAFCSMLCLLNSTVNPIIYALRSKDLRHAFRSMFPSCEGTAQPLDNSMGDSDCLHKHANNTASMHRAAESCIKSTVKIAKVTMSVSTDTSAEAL

Row | SMILES | % of occupation of the receptors, 1 hour [1] [%] | % of occupation of the receptors, 24 hours [1] [%] | ED50 [2] [mg/kg] | Duration of action, 24 h, oral dose 1 mg/kg ([2]; 24 h after administration) | Duration of action, 24 h, oral dose 10 mg/kg ([2]; oral dose 10 mg/kg, 24 h after administration) | Ki [3] [nM] | % of occupation of the receptors, 24 hours ([1]; 10 mg/kg) [%] | % of occupation of the receptors, 24 hours ([1]; listed as compound of formula (I), 10 mg/kg) [%] | antagonist nature in models of adenylate-cyclase inhibition [4]
1 | Cc1c(C(=O)NN2CCCCC2)nn(-c2ccc(Cl)cc2Cl)c1-c1ccc(Br)cc1 [Compound A, reference compound] | 89 | 4 | 0.3 | not active | active | 8 |  |  | 
2 | CCc1c(C(=O)NN2CCCCC2)nn(-c2ccc(Cl)cc2Cl)c1-c1ccc(Br)cc1 [Compound of formula (I), N-piperidino-5-(4-bromophenyl)-1-(2,4-dichlorophenyl)-4-ethylpyrazole-3-carboxamide] | 82 |  | 0.3 | active |  | 5.4 | 44 | 44 | antagonist
